Results reported in PubChem BioAssay (NCI).
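Here, GI50 denotes the concentration required for 50% inhibition of growth. TGI marks complete inhibition of growth.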

How the values were obtained:
Experiment in all cases: NCI anticancer screen, dose series, 384-well format
[1] = system: CCRF-CEM leukemia
[2] = system: NCI-H322M lung
[3] = system: PC-3 prostate
[4] = system: UO-31 renal
[5] = system: SF-295 CNS
[6] = system: HT29 colon
[7] = system: U251 glioblastoma
[8] = system: HCT-116 colon
[9] = system: MDA-MB-435 melanoma
[10] = system: HOP-62 NSCLC
[11] = system: OVCAR-8 ovarian
[12] = system: HOP-92 NSCLC
[13] = system: RXF 393 renal
[14] = system: OVCAR-3 ovarian
[15] = system: OVCAR-5 ovarian
[16] = system: SN12C renal
[17] = system: MCF7 breast
[18] = system: MDA-MB-468 breast
[19] = system: MALME-3M melanoma
[20] = system: SNB-75 CNS
[21] = system: SK-MEL-28 melanoma
[22] = system: SR leukemia
[23] = system: UACC-62 melanoma
[24] = system: MDA-MB-231 breast
[25] = system: SK-OV-3 ovarian
[26] = system: CAKI-1 renal
[27] = system: KM12 colon
[28] = system: M14 melanoma
[29] = system: NCI/ADR-RES ovarian
[30] = system: SF-539 CNS
[31] = system: SK-MEL-5 melanoma
[32] = system: NCI-H226 lung
[33] = system: HS 578T breast
[34] = system: K-562 leukemia
[35] = system: IGROV1 ovarian
[36] = system: TK-10 renal
[37] = system: NCI-H23 lung
[38] = system: MOLT-4 leukemia
[39] = system: EKVX NSCLC
[40] = system: 786-0 renal
[41] = system: COLO 205 colon
[42] = system: SK-MEL-2 melanoma
[43] = system: UACC-257 melanoma
[44] = system: A498 renal
[45] = system: RPMI-8226 leukemia
[46] = system: OVCAR-4 ovarian
[47] = system: HCC-2998 colon

## Cc1nc2ccc(-n3ncc(C(=O)c4cc5ccccc5[nH]4)c3N)cc2[nH]1
[1]
  GI50: 5.85 µM
  TGI: 18.7 µM
[2]
  GI50: 16.4 µM
  TGI: 38.9 µM
[3]
  GI50: 7.51 µM
  TGI: 26.6 µM
[4]
  GI50: 7.35 µM
  TGI: 34.5 µM
[5]
  GI50: 10.4 µM
  TGI: 26.9 µM
[6]
  GI50: 5.55 µM
  TGI: 20.5 µM
[7]
  GI50: 6.53 µM
  TGI: 25.5 µM
[8]
  GI50: 3.78 µM
  TGI: 16.1 µM
[9]
  GI50: 11.2 µM
  TGI: 42.9 µM
[10]
  GI50: 12.2 µM
  TGI: 29.6 µM
[11]
  GI50: 6.08 µM
  TGI: 18.8 µM
[12]
  GI50: 10.3 µM
  TGI: 30.3 µM
[13]
  GI50: 2.37 µM
  TGI: 10.5 µM
[14]
  GI50: 10.7 µM
  TGI: 26 µM
[15]
  GI50: 8.84 µM
  TGI: > 82.6 µM
[16]
  GI50: 6.46 µM
  TGI: 45.9 µM
[17]
  GI50: 6.62 µM
  TGI: 24.8 µM
[18]
  GI50: 4.15 µM
  TGI: 16.7 µM
[19]
  GI50: 13.1 µM
  TGI: 33.8 µM
[20]
  GI50: 2.34 µM
  TGI: 19.8 µM
[21]
  GI50: 19.5 µM
  TGI: 58.3 µM
[22]
  GI50: 0.668 µM
  TGI: 1.58 µM
[23]
  GI50: 5.92 µM
  TGI: 18.6 µM
[24]
  GI50: 4.8 µM
  TGI: 44.9 µM
[25]
  GI50: 11.3 µM
  TGI: 30.6 µM
[26]
  GI50: 6.43 µM
  TGI: 39.8 µM
[27]
  GI50: 3.3 µM
  TGI: 12.3 µM
[28]
  GI50: 12.5 µM
  TGI: 28.4 µM
[29]
  GI50: 8.76 µM
  TGI: 23.8 µM
[30]
  GI50: 2.13 µM
  TGI: 10.5 µM
[31]
  GI50: 4.2 µM
  TGI: 17.4 µM
[32]
  GI50: 5.45 µM
  TGI: 29.5 µM
[33]
  GI50: 6.48 µM
  TGI: 26 µM
[34]
  GI50: 3.95 µM
  TGI: 14.3 µM
[35]
  GI50: 6 µM
  TGI: 22.8 µM
[36]
  GI50: 4.78 µM
  TGI: 20.5 µM
[37]
  GI50: 17.5 µM
  TGI: 36.4 µM
[38]
  GI50: 1.93 µM
  TGI: 5 µM
[39]
  GI50: 15.3 µM
  TGI: 41.1 µM
[40]
  GI50: 8.85 µM
  TGI: 26.7 µM
[41]
  GI50: 5.86 µM
  TGI: 30.2 µM
[42]
  GI50: 28.2 µM
  TGI: 44 µM
[43]
  GI50: 15.1 µM
  TGI: 32.6 µM
[44]
  GI50: 12.4 µM
  TGI: 33.5 µM
[45]
  GI50: 6.35 µM
  TGI: 17.3 µM
[46]
  GI50: 10.4 µM
  TGI: 40.2 µM
[47]
  GI50: 13.1 µM
  TGI: 30.8 µM

## CC(C)n1cc(-c2ccc3c(c2)N(C)CC3)c2c(NS(=O)(=O)c3ccn(C)n3)ccnc21
[1]
  GI50: 45.3 µM
  TGI: > 100 µM
[2]
  GI50: > 100 µM
  TGI: > 100 µM
[3]
  GI50: 66.7 µM
  TGI: > 100 µM
[4]
  GI50: 78.6 µM
  TGI: > 100 µM
[5]
  GI50: 37 µM
  TGI: > 91.2 µM
[6]
  GI50: > 77.2 µM
  TGI: > 100 µM
[7]
  GI50: 87.1 µM
  TGI: > 100 µM
[8]
  GI50: > 100 µM
  TGI: > 100 µM
[9]
  GI50: > 93 µM
  TGI: > 100 µM
[10]
  GI50: > 78.1 µM
  TGI: > 100 µM
[11]
  GI50: > 70.4 µM
  TGI: > 100 µM
[12]
  GI50: > 62.9 µM
  TGI: > 100 µM
[13]
  GI50: 51.2 µM
  TGI: > 100 µM
[14]
  GI50: 40.5 µM
  TGI: > 87.6 µM
[15]
  GI50: > 100 µM
  TGI: > 100 µM
[16]
  GI50: > 100 µM
  TGI: > 100 µM
[17]
  GI50: 56.3 µM
  TGI: > 100 µM
[18]
  GI50: 56.8 µM
  TGI: > 100 µM
[19]
  GI50: > 100 µM
  TGI: > 100 µM
[20]
  GI50: > 88.1 µM
  TGI: > 100 µM
[21]
  GI50: > 93.5 µM
  TGI: > 100 µM
[22]
  GI50: 36.5 µM
  TGI: > 100 µM
[23]
  GI50: 63.4 µM
  TGI: > 100 µM
[24]
  GI50: > 68.8 µM
  TGI: > 100 µM
[25]
  GI50: > 52.6 µM
  TGI: > 85.4 µM
[26]
  GI50: > 100 µM
  TGI: > 100 µM
[27]
  GI50: 78 µM
  TGI: > 100 µM
[28]
  GI50: > 100 µM
  TGI: > 100 µM
[29]
  GI50: 61.2 µM
  TGI: > 100 µM
[30]
  GI50: > 100 µM
  TGI: > 100 µM
[31]
  GI50: > 100 µM
  TGI: > 100 µM
[32]
  GI50: > 96.1 µM
  TGI: > 100 µM
[33]
  GI50: 69.3 µM
  TGI: > 100 µM
[34]
  GI50: 53.2 µM
  TGI: > 100 µM
[35]
  GI50: > 74.4 µM
  TGI: > 100 µM
[36]
  GI50: > 100 µM
  TGI: > 100 µM
[37]
  GI50: > 70 µM
  TGI: > 100 µM
[38]
  GI50: 39.1 µM
  TGI: > 100 µM
[39]
  GI50: 75.6 µM
  TGI: > 100 µM
[40]
  GI50: > 100 µM
  TGI: > 100 µM
[41]
  GI50: > 78.9 µM
  TGI: > 100 µM
[42]
  GI50: > 100 µM
  TGI: > 100 µM
[43]
  GI50: > 100 µM
  TGI: > 100 µM
[44]
  GI50: 85.7 µM
  TGI: > 100 µM
[45]
  GI50: 21.8 µM
  TGI: 52.9 µM
[46]
  GI50: 59.8 µM
  TGI: > 100 µM
[47]
  GI50: > 100 µM
  TGI: > 100 µM
